Assay results reported in patent US20160109438A1, “PROTEASE-RESPONSIVE PEPTIDE BIOSENSORS AND METHODS FOR ANALYTE DETECTION” (AGENCY FOR SCIENCE, TECHNOLOGY AND RESEARCH, priority 2013, published 2016).

Tests used:
Mdm2 = biological target: T1, Mdm2 (Homo sapiens, UniProt Q00987); test: Mdm2-enterokinase sensor assay; type: biochemical; details: for substrate turnover (time course): sensor with enterokinase and mdm2, compared with DMSO only
T1 construct: derived from N-terminal domain (amino acids 18-125) of wild type Mdm2 protein; 10x His; made in house; host or cells: E. coli
Procedure: Nutlin was used as the positive control and a mutant p53 peptide, which cannot bind to Mdm2 was used as the negative control. The reaction was monitored using absorbance measurements at OD492 on a Perkin Elmer plate reader every 2 min. The signal was calculated from reading 5 minus reading 3. This assay was repeated three times and the average gradient value with standard error was reported.
The screening was divided into two steps. In the first step, the screening was carried out at the fixed compound concentration of […]. In the second step, a dose-response experiment of different hits found in the first step was conducted. […] The OD492 value of read number 3 was subtracted from that of read number 5 (OD492 readings were taken every 2 min) which was designated as signal. […] Fold change=Gradient of Hits (Reading 5−Reading 3)/Gradient of control (Reading 5−Reading 3)

Mdm2 N-terminal domain = Mdm2 N-terminal domain (Homo sapiens, UniProt Q00987); test: Protease exclusion sensor using fluorescence labeled internally quenched peptide (P1); details: for response of the peptide sensor (rate of fluorescence increase): various concentrations, with enterokinase and Mdm2
HA antibody = test: Thrombin-HA protease exclusion sensor; type: biochemical
From the text: An HA-antibody binds to the HA epitope ([…]; SEQ ID NO:3). The Binding of an anti-HA antibody to its epitope would disallow protease, access to its recognition site due to steric obstruction by the higher affinity HA antibody. Addition of excess HA peptide should sequester the HA antibody, leading to renewed protease access to its recognition site, bringing about increased enzyme activity in response to the HA peptide. […] Starting from the left, the rate of substrate turnover is shown after 0 nM, 4 nM, 40 nM, 400 nM and 4000 nM addition of free HA peptide to the tested sensor.

HA antibody / HA epitope = test: HA-enterokinase sensor assay; type: biochemical; details: 0 nM, 4 nM, 40 nM, 400 nM and 4000 nM; enterokinase and HA antibody present
[1] = biological target: HA antibody (clone not named, FIG. 3B and FIG. 8B); test: cell-based or functional assay
[2] = biological target: T2, Mdm2 N-terminal domain (amino acids 18-125) of wild type Mdm2 protein engineered with 10x His tag (UniProt Q00987 18-125); test: Mdm2-enterokinase sensor assay, substrate turnover at OD492
T2 construct: range 18-125; expressed in E. coli; also called Mdm2 N-terminus; Mdm2 N terminus
T2 sequence (Q00987 18-125 limits assumed, change not shown): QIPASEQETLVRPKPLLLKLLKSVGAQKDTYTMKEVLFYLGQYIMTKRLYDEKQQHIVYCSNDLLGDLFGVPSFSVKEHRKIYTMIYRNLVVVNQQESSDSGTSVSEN

T1 sequence (Q00987 18-125, species assumed): as the sequence (Q00987 18-125 limits assumed, change not shown) above
Sequence of Mdm2 N-terminal domain (Q00987 18-125): as the sequence (Q00987 18-125 limits assumed, change not shown) above

O=c1[nH]cc(F)c(=O)[nH]1 [5 FU]
substrate turnover (time course) (Mdm2): does not lead to increased turnover

ETASDLAKLAP (mutated p53 peptide) [mutant p53 peptide]
substrate turnover (time course) (Mdm2): does not lead to increased turnover
response of the peptide sensor (rate of fluorescence increase) (Mdm2 N-terminal domain): not

HA peptide: free peptide of the influenza hemagglutinin (HA) epitope, sequesters the HA antibody
rate of substrate turnover (HA antibody; thrombin and HA antibody, varying amounts of free peptide): increases with increasing amount
amount of peptide giving the highest substrate turnover (HA antibody; thrombin-HA protease exclusion sensor): 400 nM
substrate turnover after addition of free HA peptide (HA antibody / HA epitope): concentration-dependent increase of substrate turnover

Nutlin
substrate turnover (time course) (Mdm2): substrate turnover increases substantially
rate of turnover of substrate in response to various amounts (Mdm2; various amounts of competitor): increased turnover signal
detectable concentrations (Mdm2 N-terminal domain; signal to noise ratio ~5-6x): low micromolar
response of the peptide sensor (rate of fluorescence increase) (Mdm2 N-terminal domain): strong response

free HA peptide
HA peptide concentration with the highest substrate turnover (thrombin-HA protease exclusion sensor) [1]: 400 nM

B1: mutant p53 peptide with critical residues mutated to alanine (ETASDLAKLAP) (peptide)
peptide: ETASDLAKLAP
notes: Synthetic negative control peptide; also called peptide C
binding result [2]: no binding
